According to patent US10344004B2, “Inhibitor of the mutated isocitrate dehydrogenase IDH1 R132H” (Bayer Pharma Aktiengesellschaft, priority 2015, dated 2019):

Test: Relative oral bioavailability (FRel experiment) in Wistar rats
Assay type: in vivo
Description: The relative bioavailability was determined by studies in Wistar rats.
Compound A was firstly administered orally in the form of a solution. For this purpose, the active ingredient was dissolved in a mixture of 80% polyethylene glycol having an average molecular weight of 400 (PEG400) and 20% water. The active ingredient solution is the reference point for determining the relative bioavailability (formulation A1).
Compound A was also administered orally in the form of a tylose suspension (formulation A2).
Compound B was likewise administered orally in the form of a tylose suspension (formulation B).
To prepare a 0.5% aqueous tylose suspension (w/v), tylose was stirred and swelled for about 12 hours in pure water, whereupon a viscous mixture was formed. Compound A and compound B were each ground into the viscous mixture, whereupon the corresponding tylose suspensions were formed (formulation A2 and formulation B).
FIGS. 1a, 1b and 1c show the plasma concentrations of the active ingredient 3-(2-{[4-(trifluoromethoxy)phenyl]amino}-1-[(1R,5R)-3,3,5-trimethylcyclohexyl]-1H-benzimidazol-5-yl)propanoic acid (active ingredient API) after oral administration of compound A in the form of a solution (formulation A1, FIG. 1a), after oral administration of compound A in the form of a suspension (formulation A2, FIG. 1b) and after oral administration of compound B in the form of a suspension (formulation B, FIG. 1c).
For formulation A1, 5 mL/kg body weight were administered. This corresponded to an amount of active ingredient API of 10 mg/kg.
For formulation A2, 5 mL/kg body weight were administered. This corresponded to an amount of active ingredient API of 10 mg/kg.
For formulation B, 2 mL/kg body weight were administered. […]
Plasma concentrations were determined by collecting about 0.4 mL of blood in each case via an indwelling venous catheter. […] The plasma samples were analyzed by LC/MS/MS with respect to the active ingredient 3-(2-{[4-(trifluoromethoxy)phenyl]amino}-1-[(1R,5R)-3,3,5-trimethylcyclohexyl]-1H-benzimidazol-5-yl)propanoic acid.

| Compound | bioavailability (rat, plasma, tylose suspension (formulation A2), 10 mg/kg API, relative to PEG400/water solution (formulation A1)) [%] | bioavailability in the FRel experiment (tylose suspension (formulation B), 10.6 mg/kg API, relative to PEG400/water solution of compound A (formulation A1)) [%] | bioavailability compared with the pure free acid (tylose suspensions, comparison in words) |
| --- | --- | --- | --- |
| C[C@H]1C[C@@H](n2c(Nc3ccc(OC(F)(F)F)cc3)nc3cc(CCC(=O)O)ccc32)CC(C)(C)C1 [Compound A, 3-(2-{[4-(trifluoromethoxy)phenyl]amino}-1-[(1R,5R)-3,3,5-trimethylcyclohexyl]-1H-benzimidazol-5-yl)propanoic acid] | 25 | – | – |
| (2E)-but-2-enedioic acid-3-(2-{[4-(trifluoromethoxy)phenyl]amino}-1-[(1R,5R)-3,3,5-trimethylcyclohexyl]-1H-benzimidazol-5-yl)propanoic acid (1:4) [Compound B] | – | 110 | distinctly higher bioavailability |
